The test system of series [1] is Rat. The conditions noted are these: TOPKAT structural similar compounds, cited from earlier work.
In series [2] the test system is Rat. The conditions noted are these: TOPKAT structural similar compounds; ref CPDB; cited from earlier work.
For the next series, the system named is Mouse. Details: method as in earlier work. Conditions: TOPKAT structural similar compounds; ref CPDB; cited from earlier work.
A further series relates to fibroblast cells. The series is described as follows: In vitro cytotoxicity, neutral red assay on fibroblast cells. The format is cell-based. Conditions: for inhibition at 0.003 µM: Conc. 0.003 µM; for inhibition at 0.007 µM: Conc. 0.007 µM; for inhibition at 0.015 µM: Conc. 0.015 µM; for inhibition at 0.031 µM: Conc. 0.031 µM; for inhibition at 0.064 µM: Conc. 0.064 µM; for inhibition at 0.123 µM: Conc. 0.123 µM; for cytotoxicity (in words): in high concentrations. As to the method:
The active compounds were selected and subjected to cytotoxicity evaluation using the neutral red assay. Cytotoxic assays were performed according to Borenfreund and Puerner.

The target of the next series is H. pylori Urease (Helicobacter pylori, UniProt P69996). The series is described as follows: Urease inhibition assay (indophenol method) on recombinant H. pylori urease. The format is biochemical. The conditions noted are these: for Type of inhibition (in words): H. pylori urease; for Vmax: H. pylori urease with inhibitor. As to the method:
(§1) Reaction mixtures comprising 25 μL of urease enzymes solution and 55 μL of sodium phosphate buffers containing 100 mM urea were incubated with 5 μL of tested compounds above (0.5 mM concentration) at 30 °C for 15 min in 96-well plates. Urease activity was determined by measuring the ammonia production using the indophenol method as described by Weatherburn. Briefly, 45 μL of each phenol reagent (1% w/v phenol and 0.005% w/v sodium nitroprussside) and 70 μL of alkali reagent (0.5% w/v NaOH and 0.1% active chloride NaOCl) were added to each well. The absorbance at 630 nm was measured after 50 min using a microplate reader (SPECTRO star Nano, Ortenberg, Germany). All reactions were performed in triplicate in a final volume of 200 μL. The results (change in absorbance per min) were processed by using MARS Data Analysis Version 2.41, software (SPECTRO star Nano, Ortenberg, Germany).
(§2) The assays were performed at pH 6.8. The percentage of inhibitions were calculated from the formula 100 − (ODtest well/ODcontrol) × 100. Thiourea was used as the standard inhibitor of Urease.
(§3) The concentrations of the test compounds that inhibited the hydrolysis of substrates by 50% (IC50) were determined by monitoring the effect of various concentrations of these compounds in the assays on the inhibition values. The IC50 values were then calculated using Graph Pad Prism 6 software.

The target in another series is T1, J. bean Urease (Canavalia ensiformis, UniProt P07374).
T1 construct: purchased
T1 sequence (P07374 whole entry, looked up): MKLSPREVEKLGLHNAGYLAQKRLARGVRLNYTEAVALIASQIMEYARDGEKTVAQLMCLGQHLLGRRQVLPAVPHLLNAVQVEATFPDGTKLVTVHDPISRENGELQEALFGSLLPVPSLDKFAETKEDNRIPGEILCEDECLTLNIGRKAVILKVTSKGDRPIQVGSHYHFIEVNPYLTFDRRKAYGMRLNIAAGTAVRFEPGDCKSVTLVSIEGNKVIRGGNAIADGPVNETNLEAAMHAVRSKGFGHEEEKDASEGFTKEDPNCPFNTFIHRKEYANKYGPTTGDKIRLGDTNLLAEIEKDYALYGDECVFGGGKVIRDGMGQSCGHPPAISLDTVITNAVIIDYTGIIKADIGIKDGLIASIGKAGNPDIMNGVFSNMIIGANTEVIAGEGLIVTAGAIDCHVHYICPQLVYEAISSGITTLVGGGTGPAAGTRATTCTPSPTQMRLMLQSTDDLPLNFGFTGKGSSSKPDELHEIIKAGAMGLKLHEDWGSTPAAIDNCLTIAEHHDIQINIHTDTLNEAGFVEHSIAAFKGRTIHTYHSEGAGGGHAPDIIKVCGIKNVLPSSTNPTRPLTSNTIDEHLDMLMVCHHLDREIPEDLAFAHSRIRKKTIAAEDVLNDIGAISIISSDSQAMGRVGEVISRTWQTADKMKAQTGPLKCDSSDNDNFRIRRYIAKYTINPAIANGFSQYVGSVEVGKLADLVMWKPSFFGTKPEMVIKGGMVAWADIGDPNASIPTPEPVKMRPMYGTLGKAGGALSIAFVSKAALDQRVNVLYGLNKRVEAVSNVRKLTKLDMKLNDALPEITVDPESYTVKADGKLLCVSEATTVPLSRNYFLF
The series is described as follows: Urease inhibition assay (indophenol method) on commercial Jack bean urease. The conditions noted are these: for Type of inhibition (in words): J. bean urease; for Vmax: J. bean urease with inhibitor. The format is biochemical. As to the method: as §1, §2, §3

Where two headings read alike, the source gives them in different places.

H. pylori Urease, sequence (P69996 whole entry): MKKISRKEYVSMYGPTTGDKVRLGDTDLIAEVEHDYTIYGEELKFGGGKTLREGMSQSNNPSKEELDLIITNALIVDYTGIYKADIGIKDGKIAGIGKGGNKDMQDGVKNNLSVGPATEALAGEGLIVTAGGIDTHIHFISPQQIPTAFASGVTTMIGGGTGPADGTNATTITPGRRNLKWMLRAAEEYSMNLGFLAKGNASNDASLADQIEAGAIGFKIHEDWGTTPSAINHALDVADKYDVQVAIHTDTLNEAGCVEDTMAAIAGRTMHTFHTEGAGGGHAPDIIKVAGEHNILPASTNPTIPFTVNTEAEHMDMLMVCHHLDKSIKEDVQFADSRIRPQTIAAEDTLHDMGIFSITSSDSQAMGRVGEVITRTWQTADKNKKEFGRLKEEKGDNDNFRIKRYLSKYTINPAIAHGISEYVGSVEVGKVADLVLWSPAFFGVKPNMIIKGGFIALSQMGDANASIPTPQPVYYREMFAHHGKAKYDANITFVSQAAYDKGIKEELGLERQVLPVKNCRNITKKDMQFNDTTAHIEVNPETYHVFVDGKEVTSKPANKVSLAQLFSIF
H. pylori Urease, sequence (P14916 whole entry, further chain): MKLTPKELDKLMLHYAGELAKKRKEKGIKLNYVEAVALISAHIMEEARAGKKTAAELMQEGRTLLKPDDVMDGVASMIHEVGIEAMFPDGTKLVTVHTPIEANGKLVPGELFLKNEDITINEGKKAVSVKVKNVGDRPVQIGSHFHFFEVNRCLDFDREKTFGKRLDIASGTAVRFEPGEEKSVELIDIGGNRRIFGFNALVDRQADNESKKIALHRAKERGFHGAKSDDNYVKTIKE

For the compound `CCOCSc1nc2ccccc2n1COCC`, the melting point (in general, the temperature, or range, at which the solid turns liquid) was 108 °C.

`N#CCSc1nc2ccccc2n1CC#N` registered a melting point of 161 to 163 °C.

As to `OCCCSc1nc2ccccc2[nH]1`, the melting point was 119 °C.

For the compound `CC(O)CSc1nc2ccccc2[nH]1` (stereo not drawn), the melting point turned out to be 250 °C.

For the compound `CCCCCCCCCCCSc1nc2ccccc2[nH]1`, the melting point is 104 °C.

Regarding `CCOC(CSc1nc2ccccc2[nH]1)OCC`, the melting point came out at 80 °C.

Turning to `CCCCSc1nc2ccccc2[nH]1`, the melting point turned out to be 145 °C.

For `c1ccc2[nH]c(SCC3CO3)nc2c1` (stereo not drawn), the melting point stood at 211 °C.

With `NC(=O)Nc1ccccc1`, the “Actual Endpoint (-log C), Rat Oral LD50” value in the series with Rat [1] (ref IIFBA4 12;195;69) is given as 1.833 -log C.

Take `CC(O)CN` (stereo not drawn) [1-AMINO-2-PROPANOL]: the “Actual Endpoint (-log C), Rat Oral LD50” value in the series on Rat [1] (ref JACTDZ 6(1);53;87) is on record as 1.554 -log C.

With `NC(=S)Nc1ccccc1` [1-PHENYL-2-THIOUREA], the “Actual Endpoint (-log C), Rat Oral LD50” value with Rat [1] (ref JMPCAS 4;109;61) is listed as 4.705 -log C.

As for `Sc1nc2ccccc2s1` [2-Mercaptobenzothiazole], in the series on Rat [2], the “Actual Endpoint (-log C), Carcinogenic Potency TD50 Rat” value is recorded as 2.687 -log C.

As to `CC(N)=O` [Acetamide], in the series on Mouse, the “Actual Endpoint (-log C), Carcinogenic Potency TD50 Mouse” value is given as 1.293 -log C. For the same compound, in the series with Rat [2], the “Actual Endpoint (-log C), Carcinogenic Potency TD50 Rat” value is on record as 2.516 -log C.

For the compound `CC(=O)Nc1ccc(O)cc1` [Acetaminophen, reference compound], the “Actual Endpoint (-log C), Carcinogenic Potency TD50 Rat” value with Rat [2] is on record as 2.485 -log C.

On to `Oc1ccccc1O` [Catechol], for which the “Actual Endpoint (-log C), Carcinogenic Potency TD50 Mouse” value in the series on Mouse is reported as 2.654 -log C.

Take `CC(C)(Oc1ccc(C2CC2(Cl)Cl)cc1)C(=O)O` (stereo not drawn) [Ciprofibrate, reference compound]: the “Actual Endpoint (-log C), Carcinogenic Potency TD50 Mouse” value in the series on Mouse is listed as 4.669 -log C.

Take `Sc1nc2ccccc2[nH]1` [Compound 2, 1H-Benzimidazole-2(3H)-thione]: the inhibition (commonly the drop in the measured response relative to a control, in per cent) at 0.009 µM with fibroblast cells (Fibroblast) turned out to be 20%. Besides, in the series with fibroblast cells (fibroblast cells), the inhibition at 0.003 µM was 40.4%, the inhibition at 0.007 µM amounted to 44%, the inhibition at 0.015 µM is 49.4% and the inhibition at 0.031 µM amounted to 49.5%. In addition, in the series on fibroblast cells (fibroblast cells), the inhibition at 0.064 µM was 80.6%, the inhibition at 0.123 µM worked out at 82.5% and the “cytotoxicity (in words)” value is on record as “not cytotoxic”. Also, on H. pylori Urease, the “Type of inhibition (in words)” value is on record as “non-competitive” and the Vmax (commonly the rate approached at saturating substrate) is 1.54 ± 0.057 µmol/min. Moreover, on J. bean Urease, inhibition was half-maximal at 260 ± 8 µM (IC50), the “Type of inhibition (in words)” value was “non-competitive” and the Vmax is 1.53 ± 0.005 µmol/min.

Take `CCOCn1c(=S)[nH]c2ccccc21` [Compound 5, 1-(Ethoxymethyl)-1H-benzo[d]imidazole-2(3H)-thione]: in the series with fibroblast cells (fibroblast cells), the inhibition at 0.003 µM is -28.8%, the inhibition at 0.007 µM is -15.9%, the inhibition at 0.015 µM came to 4.6% and the inhibition at 0.031 µM is 26.2%. In the series on fibroblast cells (fibroblast cells), the inhibition at 0.064 µM came out at 52.1%, the inhibition at 0.123 µM came out at 53.5% and the “cytotoxicity (in words)” value is recorded as “not cytotoxic”. Also, in the series with fibroblast cells (fibroblast cells, Conc. 0.009 µM, read-out: % Inhibition), the inhibition at 0.009 µM is -61.2%. On H. pylori Urease, the “Type of inhibition (in words)” value is given as “uncompetitive” and the Vmax was 1.52 ± 0.024 µmol/min. Also, on J. bean Urease, the concentration for half-maximal inhibition (IC50) (commonly the concentration that gives 50% inhibition) is 290 ± 18 µM, the “Type of inhibition (in words)” value is given as “non-competitive” and the Vmax is 1.60 ± 0.04 µmol/min.

Take `O=c1ccc(=O)[nH][nH]1` [MALEIC HYDRAZIDE]: the “Actual Endpoint (-log C), Rat Oral LD50” value with Rat [1] (ref WRPCA2 9;119;70) is 1.47 -log C.

In the case of `CNN` [METHYLHYDRAZINE], the “Actual Endpoint (-log C), Rat Oral LD50” value in the series with Rat [1] (ref XAWPA2 CWL) is recorded as 3.158 -log C.

On to `CC(=O)NN` [Monoacetyl hydrazine], for which the “Actual Endpoint (-log C), Carcinogenic Potency TD50 Mouse” value in the series with Mouse was 3.876 -log C.

On to `CCOc1ccc(NC(C)=O)cc1` [Phenacetin, reference compound], for which the “Actual Endpoint (-log C), Carcinogenic Potency TD50 Rat” value in the series with Rat [2] was 2.156 -log C.

With `S=C1NCCC(COc2ccccc2)O1` (stereo not drawn) [TIFEMOXONE, reference compound], the “Actual Endpoint (-log C), Rat Oral LD50” value in the series on Rat [1] (ref ATSUDG 1;229;78) was 2.006 -log C.

Consider `CC(=N)S` [Thioacetamide], for which the “Actual Endpoint (-log C), Carcinogenic Potency TD50 Rat” value in the series on Rat [2] is recorded as 3.815 -log C.

On to `Cc1cccc(NC(N)=O)c1` [m-TOLYLUREA], for which the “Actual Endpoint (-log C), Rat Oral LD50” value with Rat [1] (ref IIFBA4 12;195;69) was 2.053 -log C.

Turning to `CCOc1ccccc1C(N)=O` [o-Ethoxybenzamide], the “Actual Endpoint (-log C), Carcinogenic Potency TD50 Mouse” value in the series on Mouse is reported as 2.508 -log C.

For `O=Nc1ccc(Nc2ccccc2)cc1` [p-Nitrosodiphenylamine], the “Actual Endpoint (-log C), Carcinogenic Potency TD50 Rat” value in the series with Rat [2] was 2.994 -log C.

`Cc1ccc(NC(N)=O)cc1` [p-Tolylurea]: the “Actual Endpoint (-log C), Carcinogenic Potency TD50 Mouse” value in the series on Mouse is on record as 2.863 -log C.

With Methylhydrazine s, the “Actual Endpoint (-log C), Carcinogenic Potency TD50 Mouse” value in the series on Mouse is recorded as 3.785 -log C.

Source of the values: publication PMC8838460, “Expression, Purification, and Comparative Inhibition of Helicobacter pylori Urease by Regio-Selectively Alkylated Benzimidazole 2-Thione Derivatives” (Molecules, 2022).
